Data: patent publication US10287255B2, “Compounds as histone deacetylase 6 inhibitors and pharmaceutical compositions comprising the same” (CHONG KUN DANG PHARMACEUTICAL CORP., priority 2014, dated 2019)

What was measured:
human recombinant HDAC6 = molecular target: T1, human recombinant HDAC6 (Homo sapiens, UniProt Q9UBN7); assay: HDAC6 enzyme activity inhibition assay (in vitro, fluorimetric); assay type: biochemical; details: for HDAC6 selectivity (fold): HDAC6 selectivity over HDAC1; for IC50: human recombinant HDAC6, fluorimetric kit, same protocol as HDAC1
T1 construct: purchased Calbiochem 382180
T1 sequence (Q9UBN7 1-1215): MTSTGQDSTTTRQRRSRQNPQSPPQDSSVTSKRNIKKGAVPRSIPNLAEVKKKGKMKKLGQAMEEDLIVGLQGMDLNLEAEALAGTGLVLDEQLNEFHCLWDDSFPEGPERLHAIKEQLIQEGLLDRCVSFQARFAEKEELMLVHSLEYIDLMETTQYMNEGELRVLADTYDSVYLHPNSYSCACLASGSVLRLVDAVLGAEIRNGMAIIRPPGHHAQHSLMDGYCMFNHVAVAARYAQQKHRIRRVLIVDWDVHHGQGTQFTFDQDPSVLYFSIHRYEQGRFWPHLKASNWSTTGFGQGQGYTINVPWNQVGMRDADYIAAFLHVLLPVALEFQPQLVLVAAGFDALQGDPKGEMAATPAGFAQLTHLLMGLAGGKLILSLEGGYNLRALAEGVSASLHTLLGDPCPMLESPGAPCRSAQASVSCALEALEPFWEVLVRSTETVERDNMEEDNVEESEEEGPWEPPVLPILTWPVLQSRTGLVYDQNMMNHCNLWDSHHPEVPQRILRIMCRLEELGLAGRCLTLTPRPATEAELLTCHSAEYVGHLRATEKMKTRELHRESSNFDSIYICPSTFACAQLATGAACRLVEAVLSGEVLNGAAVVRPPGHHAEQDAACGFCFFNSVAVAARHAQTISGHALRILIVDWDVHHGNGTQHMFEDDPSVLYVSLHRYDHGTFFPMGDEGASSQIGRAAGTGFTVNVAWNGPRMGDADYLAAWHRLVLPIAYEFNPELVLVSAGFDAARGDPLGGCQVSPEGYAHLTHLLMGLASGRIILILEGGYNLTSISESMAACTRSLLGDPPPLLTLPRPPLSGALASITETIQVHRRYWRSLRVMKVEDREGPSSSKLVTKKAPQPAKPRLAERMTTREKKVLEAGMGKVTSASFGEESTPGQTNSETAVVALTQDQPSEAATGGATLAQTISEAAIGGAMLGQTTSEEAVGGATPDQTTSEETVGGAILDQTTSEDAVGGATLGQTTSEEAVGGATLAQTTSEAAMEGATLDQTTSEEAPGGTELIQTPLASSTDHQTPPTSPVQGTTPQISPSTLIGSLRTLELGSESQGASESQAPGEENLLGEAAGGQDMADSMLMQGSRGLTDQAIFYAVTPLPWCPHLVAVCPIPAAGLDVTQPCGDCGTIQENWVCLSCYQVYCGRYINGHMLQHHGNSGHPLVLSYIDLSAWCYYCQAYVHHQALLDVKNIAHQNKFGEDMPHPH
Protocol: (§1) In order to examine the HDAC6 selectivity of the compounds of formula 1 of the present invention by HDAC1 and HDAC6 enzymatic activity inhibition assays, an experiment was performed using a conventional substance as a control.
(§2) HDAC enzyme activity was measured using a HDAC Fluorimetric Drug Discovery Kit (BML-AK511, 516, Enzo Life Science). For the HDAC1 enzyme activity test, human recombinant HDAC1 (BML-SE456) was used as an enzyme source, and Fluor de Lys®-“SIRT1 (BNL-KI177) was used as a substrate. A 5-fold dilution of the compound was seeded into a 96-well plate, and then 0.3 μg of the enzyme and 10 μM of the substrate were added to each well of the plate and allowed to react at 30° C. for 60 minutes. Then, Fluor de Lys® Developer II (BML-KI176) was added thereto and allowed to react for 30 minutes, after which the fluorescence value (Ex 360, Em 460) was measured using a multi-plate reader (Flexstation 3, Molecular Device). The HDAC6 enzyme was tested using human recombinant HDAC6 (382180) (Calbiochem) according to the same protocol as the HDAC1 enzyme activity test method. Based on the resulting values, each IC50 value was calculated using GraphPad Prism4.0 program.

human recombinant HDAC1 = molecular target: T2, human recombinant HDAC1 (Homo sapiens, UniProt Q13547); assay: HDAC1 enzyme activity inhibition assay (in vitro, fluorimetric); assay type: biochemical; details: human recombinant HDAC1, fluorimetric kit, 30° C. 60 minutes
T2 construct: purchased Enzo Life Science BML-SE456
T2 sequence (Q13547 whole entry): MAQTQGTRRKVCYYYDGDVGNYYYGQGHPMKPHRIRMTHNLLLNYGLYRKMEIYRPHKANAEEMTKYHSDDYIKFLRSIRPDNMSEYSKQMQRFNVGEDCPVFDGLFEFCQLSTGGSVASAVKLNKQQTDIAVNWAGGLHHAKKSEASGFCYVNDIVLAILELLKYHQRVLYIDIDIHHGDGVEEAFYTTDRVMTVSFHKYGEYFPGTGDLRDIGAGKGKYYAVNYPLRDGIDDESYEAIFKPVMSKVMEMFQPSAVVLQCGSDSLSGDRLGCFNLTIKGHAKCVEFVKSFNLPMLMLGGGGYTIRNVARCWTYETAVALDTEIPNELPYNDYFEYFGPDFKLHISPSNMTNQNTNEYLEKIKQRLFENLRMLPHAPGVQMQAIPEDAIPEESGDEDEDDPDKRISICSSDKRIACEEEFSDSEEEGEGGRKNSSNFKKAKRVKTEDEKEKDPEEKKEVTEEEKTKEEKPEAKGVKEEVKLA
Protocol: as §1, §2

Compound | HDAC6 selectivity (fold) (human recombinant HDAC6) | IC50 (human recombinant HDAC6) [µM] | IC50 (human recombinant HDAC1) [µM]
C[C@@H]1CN(Cc2ccc(C(=O)NO)cc2)C[C@H](C)N1Cc1ccccc1Cl [Compound 127, 4-(((3R,5S)-4-(2-chlorobenzyl)-3,5-dimethylpiperazin-1-yl)methyl)-N-hydroxybenzamide] | >909 | 0.011 | > 10
C[C@@H]1CN(Cc2ccc(C(=O)NO)cc2)C[C@H](C)N1Cc1cccc(Cl)c1 [Compound 128, 4-(((3R,5S)-4-(3-chlorobenzyl)-3,5-dimethylpiperazin-1-yl)methyl)-N-hydroxybenzamide] | 5540 | 0.002 | 11.1
C[C@@H]1CN(Cc2ccc(C(=O)NO)cc2)C[C@H](C)N1Cc1ccco1 [Compound 145, 4-(((3R,5S)-4-(furan-2-ylmethyl)-3,5-dimethylpiperazin-1-yl)methyl)-N-hydroxybenzamide] | 519 | 0.033 | 17.1
C[C@@H]1CN(Cc2ccc(C(=O)NO)cc2)C[C@H](C)N1C(=O)Cc1ccccc1 [Compound 146, 4-(((3R,5S)-3,5-dimethyl-4-(2-phenylacetyl)piperazin-1-yl)methyl)-N-hydroxybenzamide] | 314 | 0.019 | 6
CCN1[C@H](C)CN(Cc2ccc(C(=O)NO)cc2)C[C@@H]1C [Compound 147, 4-(((3R,5S)-4-ethyl-3,5-dimethylpiperazin-1-yl)methyl)-N-hydroxybenzamide] | >90 | 0.111 | > 10
CCCN1[C@H](C)CN(Cc2ccc(C(=O)NO)cc2)C[C@@H]1C [Compound 148, 4-(((3R,5S)-3,5-dimethyl-4-propylpiperazin-1-yl)methyl)-N-hydroxybenzamide] | 132 | 0.117 | 15.4
C[C@@H]1CN(Cc2ccc(C(=O)NO)cc2)C[C@H](C)N1CC(F)(F)F [Compound 149, 4-(((3R,5S)-3,5-dimethyl-4-(2,2,2-trifluoroethyl)piperazin-1-yl)methyl)-N-hydroxybenzamide] | >125 | 0.08 | > 10
C[C@@H]1CN(CCCCCC(=O)NO)C[C@H](C)N1Cc1ccccc1 [Compound 154, 6-((3R,5S)-4-benzyl-3,5-dimethylpiperazin-1-yl)-N-hydroxyhexanamide] | 44 | 0.193 | 8.4
C[C@@H]1CN(Cc2ccc(C(=O)NO)cc2)C[C@H](C)N1C(=O)Nc1ccccc1 [Compound 159, (2S,6R)-4-(4-(hydroxycarbamoyl)benzyl)-2,6-dimethyl-N-phenylpiperazine-1-carboxamide] | 109 | 0.033 | 3.6
Cc1ccccc1NC(=O)N1[C@H](C)CN(Cc2ccc(C(=O)NO)cc2)C[C@@H]1C [Compound 160, (2S,6R)-4-(4-(hydroxycarbamoyl)benzyl)-2,6-dimethyl-N-o-tolylpiperazine-1-carboxamide] | 177 | 0.05 | 8.8
C[C@@H]1CN(Cc2ccc(C(=O)NO)cc2)C[C@H](C)N1C(=O)NCc1ccccc1 [Compound 161, (2S,6R)-N-benzyl-4-(4-(hydroxycarbamoyl)benzyl)-2,6-dimethylpiperazine-1-carboxamide] | 182 | 0.016 | 2.9
C[C@@H]1CN(C(=O)Nc2ccccc2)C[C@H](C)N1Cc1ccc(C(=O)NO)cc1 [Compound 162, (3R,5S)-4-(4-(hydroxycarbamoyl)benzyl)-3,5-dimethyl-N-phenylpiperazine-1-carboxamide] | 5 | 0.079 | 0.4
COc1ccccc1NC(=O)N1C[C@@H](C)N(Cc2ccc(C(=O)NO)cc2)[C@@H](C)C1 [Compound 163, (3R,5S)-4-(4-(hydroxycarbamoyl)benzyl)-N-(2-methoxyphenyl)-3,5-dimethylpiperazine-1-carboxamide] | 2 | 0.497 | 1.1
COc1cccc(NC(=O)N2C[C@@H](C)N(Cc3ccc(C(=O)NO)cc3)[C@@H](C)C2)c1 [Compound 164, (3R,5S)-4-(4-(hydroxycarbamoyl)benzyl)-N-(3-methoxyphenyl)-3,5-dimethylpiperazine-1-carboxamide] | 4 | 0.135 | 0.5
COc1ccc(NC(=O)N2C[C@@H](C)N(Cc3ccc(C(=O)NO)cc3)[C@@H](C)C2)cc1 [Compound 165, (3R,5S)-4-(4-(hydroxycarbamoyl)benzyl)-N-(4-methoxyphenyl)-3,5-dimethylpiperazine-1-carboxamide] | 2 | 0.56 | 1.4
Cc1ccccc1NC(=O)N1C[C@@H](C)N(Cc2ccc(C(=O)NO)cc2)[C@@H](C)C1 [Compound 166, (3R,5S)-4-(4-(hydroxycarbamoyl)benzyl)-3,5-dimethyl-N-o-tolylpiperazine-1-carboxamide] | 10 | 0.452 | 4.3
Cc1cccc(NC(=O)N2C[C@@H](C)N(Cc3ccc(C(=O)NO)cc3)[C@@H](C)C2)c1 [Compound 167, (3R,5S)-4-(4-(hydroxycarbamoyl)benzyl)-3,5-dimethyl-N-m-tolylpiperazine-1-carboxamide] | 10 | 0.077 | 0.8
C[C@@H]1CN(C(=O)NCc2ccccc2)C[C@H](C)N1Cc1ccc(C(=O)NO)cc1 [Compound 168, (3R,5S)-N-benzyl-4-(4-(hydroxycarbamoyl)benzyl)-3,5-dimethylpiperazine-1-carboxamide] | 7 | 0.316 | 2.2
C[C@@H]1CN(Cc2ccc(/C=C/C(=O)NO)cc2)C[C@H](C)N1Cc1ccccc1 [Compound 172, (E)-3-(4-(((3R,5S)-4-benzyl-3,5-dimethylpiperazin-1-yl)methyl)phenyl)-N-hydroxyacrylamide] | 35 | 0.038 | 1.3
C[C@@H]1CN(Cc2ccc(CC(=O)NO)cc2)C[C@H](C)N1Cc1ccccc1 [Compound 173, 2-(4-(((3R,5S)-4-benzyl-3,5-dimethylpiperazin-1-yl)methyl)phenyl)-N-hydroxyacetamide] | 85 | 0.085 | 7.2
C[C@@H]1CN(Cc2ccccc2)C[C@H](C)N1Cc1ccc(C(=O)NO)c(F)c1 [Compound 174, 4-(((2S,6R)-4-benzyl-2,6-dimethylpiperazin-1-yl)methyl)-2-fluoro-N-hydroxybenzamide] | >103 | 0.097 | > 10
C[C@@H]1CN(Cc2ccccc2)C[C@H](C)N1Cc1ccc(/C=C/C(=O)NO)cc1 [Compound 175, (E)-3-(4-(((2S,6R)-4-benzyl-2,6-dimethylpiperazin-1-yl)methyl)phenyl)-N-hydroxyacrylamide] | 90 | 0.068 | 6.1
